Test results published in patent US11104664B2, “4,5,6-trisubstituted indazole derivatives, and preparation method and pharmaceutical use thereof” (SHANGHAI HAIYAN PHARMACEUTICAL TECHNOLOGY CO., LTD., priority 2016, dated 2021).

Legend:
[1] = target: Recombinant PRC2 (EZH2-Y641F) (Homo sapiens (Human), UniProt Q15910, Y641F); test: In vitro methyltransferase activity assay (LANCE Ultra); format: biochemical; conditions: for IC50: 2.5 μM SAM/250 nM H3(1-50)K27me1, 3 hours, room temperature; for inhibitory activity against the enzyme (in words): SAR comment on Table 1, reduced relative to comparator compounds (P-7, P-13/14)
Procedure: Recombinant PRC2 (EZH2-Y641F) was purchased from Active motif, S-adenosyl-methionine (SAM) and Poly-L-lysine (PLL) were purchased from Sigma-Aldrich, and H3(1-50)K27me1 peptide was purchased from Cisbio. LANCEUltrasystem (Perkinelmer) was used for detection system. In the enzyme activity test, compounds to be tested were diluted by 8 gradient points in a ratio of 1:3, and added into each well in a reaction plate, and 100 ng recombinase was added, followed by a buffer [20 mM Tris pH8.5, 2 mM MgCl2, 0.01% Tween-20, 1 mM TCEP] containing 2.5 μM SAM/250 nM H3 (1-50)K27me1 premixtures. Enzymatic reaction thus began at room temperature. After reacted for 3 hours, a detection solution premixed with PLL, detection antibody and Ulight was added, and reacted for 1 hour at room temperature. The fluorescence value was then read on a Tecan infinite pro. IC50 was calculated by fitting in a four-factor model in the XLfit software.

Pfeiffer cells = test: Cell proliferation assay (Cell counting kit-8, 6 days); format: cell-based; conditions: Pfeiffer (CRL-2632), 6 days culture
Procedure: The used cell lines Pfeiffer (CRL-2632), suDHL-6 (CRL-2959) and suDHL-10 (CRL-2963) were obtained from American Type Culture Collection (ATCC). All cell lines were cultured in RPMI-1640 medium (Gibco) containing 10% fetal bovine serum (Gibco). The cultured cells were harvested by centrifugation and the cell density was determined using a CounterStar cell counter. Appropriate number of cells were plated in a 96-well culture plate and incubated overnight. Compounds to be tested were diluted by 8 gradient points in a ratio of 1:3 and added into corresponding wells. After continuing to culture for 6 days, the number of viable cells was measured with Cell counting kit-8, and the absorbance value was read on Tecan infinite pro. The IC50 was calculated by fitting in a four-parameter model in the XLfit software.

Recombinant PRC2 (EZH2-Y641F), sequence (Q15910 whole entry Y641F): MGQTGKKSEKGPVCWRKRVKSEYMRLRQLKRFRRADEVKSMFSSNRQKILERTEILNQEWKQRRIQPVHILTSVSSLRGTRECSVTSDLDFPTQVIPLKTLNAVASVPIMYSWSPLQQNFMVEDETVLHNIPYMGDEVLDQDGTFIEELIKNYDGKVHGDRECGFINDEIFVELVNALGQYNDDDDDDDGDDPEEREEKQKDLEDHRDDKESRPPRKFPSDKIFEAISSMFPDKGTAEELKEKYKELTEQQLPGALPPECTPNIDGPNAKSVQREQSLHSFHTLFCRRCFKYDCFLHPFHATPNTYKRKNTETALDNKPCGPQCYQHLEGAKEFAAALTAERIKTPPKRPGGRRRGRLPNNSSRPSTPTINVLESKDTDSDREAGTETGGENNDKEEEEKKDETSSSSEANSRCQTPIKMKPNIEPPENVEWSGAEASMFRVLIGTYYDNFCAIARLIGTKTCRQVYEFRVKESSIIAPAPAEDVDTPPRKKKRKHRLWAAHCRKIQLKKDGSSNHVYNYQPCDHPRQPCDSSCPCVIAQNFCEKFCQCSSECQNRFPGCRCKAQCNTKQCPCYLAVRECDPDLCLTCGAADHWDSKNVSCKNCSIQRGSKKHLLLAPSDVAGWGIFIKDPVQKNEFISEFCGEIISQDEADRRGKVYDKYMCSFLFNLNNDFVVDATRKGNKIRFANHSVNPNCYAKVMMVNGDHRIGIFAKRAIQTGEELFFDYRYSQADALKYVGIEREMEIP
Recombinant PRC2 (EZH2-Y641F), sequence (O75530 whole entry partner): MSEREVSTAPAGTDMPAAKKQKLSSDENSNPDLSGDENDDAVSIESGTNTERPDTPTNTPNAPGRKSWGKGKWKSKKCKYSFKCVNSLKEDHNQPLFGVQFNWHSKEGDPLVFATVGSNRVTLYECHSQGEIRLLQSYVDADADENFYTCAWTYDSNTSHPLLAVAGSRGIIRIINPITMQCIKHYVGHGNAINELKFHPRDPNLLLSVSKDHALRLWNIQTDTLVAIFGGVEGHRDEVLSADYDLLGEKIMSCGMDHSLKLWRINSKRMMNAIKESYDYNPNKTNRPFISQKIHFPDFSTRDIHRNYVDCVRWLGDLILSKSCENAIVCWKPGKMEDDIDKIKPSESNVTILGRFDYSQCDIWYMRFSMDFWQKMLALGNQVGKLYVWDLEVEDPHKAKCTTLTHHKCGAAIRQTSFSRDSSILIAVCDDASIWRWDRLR
Recombinant PRC2 (EZH2-Y641F), sequence (Q15022 whole entry partner): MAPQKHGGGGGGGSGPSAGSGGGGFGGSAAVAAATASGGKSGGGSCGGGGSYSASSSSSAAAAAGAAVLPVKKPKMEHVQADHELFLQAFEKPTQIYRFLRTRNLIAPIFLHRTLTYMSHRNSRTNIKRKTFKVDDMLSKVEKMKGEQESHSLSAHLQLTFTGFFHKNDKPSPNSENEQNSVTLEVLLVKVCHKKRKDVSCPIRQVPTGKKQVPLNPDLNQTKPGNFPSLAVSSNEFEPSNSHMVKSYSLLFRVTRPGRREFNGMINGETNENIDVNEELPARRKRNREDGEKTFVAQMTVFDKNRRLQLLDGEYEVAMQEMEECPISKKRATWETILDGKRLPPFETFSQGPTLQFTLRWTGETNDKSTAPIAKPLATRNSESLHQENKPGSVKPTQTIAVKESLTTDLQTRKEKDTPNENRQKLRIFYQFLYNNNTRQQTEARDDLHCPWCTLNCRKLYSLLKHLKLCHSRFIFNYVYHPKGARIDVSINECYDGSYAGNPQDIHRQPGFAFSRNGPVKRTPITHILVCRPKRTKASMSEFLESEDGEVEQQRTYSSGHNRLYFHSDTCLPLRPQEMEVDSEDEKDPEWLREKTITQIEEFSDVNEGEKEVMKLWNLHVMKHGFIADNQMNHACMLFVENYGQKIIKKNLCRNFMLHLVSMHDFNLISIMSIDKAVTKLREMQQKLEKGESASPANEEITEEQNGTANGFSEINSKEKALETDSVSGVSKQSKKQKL
Recombinant PRC2 (EZH2-Y641F), sequence (Q09028 whole entry partner): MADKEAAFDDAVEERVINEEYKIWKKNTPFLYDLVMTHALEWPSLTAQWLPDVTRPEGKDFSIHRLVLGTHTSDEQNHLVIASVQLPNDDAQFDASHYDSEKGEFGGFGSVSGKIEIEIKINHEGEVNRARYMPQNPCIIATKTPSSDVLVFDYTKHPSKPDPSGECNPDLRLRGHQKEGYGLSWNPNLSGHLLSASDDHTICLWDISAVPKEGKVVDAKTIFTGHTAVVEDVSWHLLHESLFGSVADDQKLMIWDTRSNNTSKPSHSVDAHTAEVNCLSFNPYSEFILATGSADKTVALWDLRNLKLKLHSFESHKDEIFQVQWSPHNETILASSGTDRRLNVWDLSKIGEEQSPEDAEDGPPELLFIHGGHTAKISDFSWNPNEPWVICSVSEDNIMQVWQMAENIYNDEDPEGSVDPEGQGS
Recombinant PRC2 (EZH2-Y641F), sequence (Q6ZN18 whole entry partner): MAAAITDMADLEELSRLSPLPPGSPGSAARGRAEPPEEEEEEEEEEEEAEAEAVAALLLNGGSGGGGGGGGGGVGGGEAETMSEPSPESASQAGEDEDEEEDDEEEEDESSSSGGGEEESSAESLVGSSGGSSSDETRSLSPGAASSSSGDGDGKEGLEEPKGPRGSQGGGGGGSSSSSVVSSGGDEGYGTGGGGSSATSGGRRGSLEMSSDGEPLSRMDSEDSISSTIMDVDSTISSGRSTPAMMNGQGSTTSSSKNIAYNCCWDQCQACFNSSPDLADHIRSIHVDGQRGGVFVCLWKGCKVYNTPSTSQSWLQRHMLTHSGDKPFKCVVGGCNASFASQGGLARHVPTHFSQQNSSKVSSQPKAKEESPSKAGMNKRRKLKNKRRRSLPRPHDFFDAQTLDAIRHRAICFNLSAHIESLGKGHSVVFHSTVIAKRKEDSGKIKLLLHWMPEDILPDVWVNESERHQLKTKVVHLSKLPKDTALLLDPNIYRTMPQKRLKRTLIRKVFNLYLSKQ

Row | IC50 [1] [µM] | Compound | inhibitory activity against the enzyme (in words) [1] | IC50 (Pfeiffer cells; Homo sapiens, 144 h) [µM] | IC50 (Pfeiffer cells) [µM]
1 | 0.005 | CCN(c1c(C)c(C(=O)NCc2c(C)cc(C)[nH]c2=O)cc2c1cnn2C)[C@H]1CC[C@H](N(C)C)CC1 [P-14, N-((4,6-dimethyl-2-oxo-1,2-dihydropyridin-3-yl)methyl)-4-(((1R, 4R)-4-(dimethylamino)cyclohexyl)(ethyl)amino)-1,5-dimethyl-1H-indazole-6-carboxamide] | – | – | 0.212
2 | 0.007 | CCN(c1c(C)c(C(=O)NCc2c(OC)cc(C)[nH]c2=O)cc2c1cnn2C)C1CCC(N(C)CCOC)CC1 (stereo not drawn) [P-15, 4-(ethyl(4-((2-methoxyethyl) (methyl)amino)cyclohexyl)amino)-N-((4-methoxy-6-methyl-2-oxo-1,2-dihydropyridin-3-yl)methyl)-1,5-dimethyl-1H-indazole-6-carb oxamide] | – | 0.076 | –
3 | 0.008 | CCc1c(C(=O)NCc2c(OC)cc(C)[nH]c2=O)cc2c(cnn2C)c1N(CC)C1CCOCC1 [P-16, 5-ethyl-4-(ethyl(tetrahydro-2H-pyran-4-yl)amino)-N-((4-methoxy-6-methyl-2-oxo-1,2-dihydropyridin-3-yl)methyl)-1-methyl-1H-indazole-6-carboxamide] | – | 0.007 | –
4 | 0.008 | CCc1c(C(=O)NCc2c(C)cc(C)[nH]c2=O)cc2c(cnn2C)c1N(CC)C1CCOCC1 [P-17, N-((4,6-dimethyl-2-oxo-1,2-dihydropyridin-3-yl)methyl)-5-ethyl-4-(ethyl(tetrahydro-2H-pyran-4-yl)amino)-1-methyl-1H-indazole-6-carboxamide] | – | 0.036 | –
5 | 0.045 | CCc1c(C(=O)NCc2c(C)cc(C)[nH]c2=O)cc2c(cnn2C)c1N(CC)[C@H]1CC[C@H](N2CC(OC)C2)CC1 [P-19] | – | – | 0.076
6 | 0.018 | CCc1c(C(=O)NCc2c(C)cc(C)[nH]c2=O)cc2c(cnn2C)c1N(CC)C1CCC(N(C)CCOC)CC1 [P-20, N-((4,6-dimethyl-2-oxo-1,2-dihydropyridin-3-yl)methyl)-5-ethyl-4-(ethyl((1S, 4S)-4-((2-methoxyethyl)(methyl)amino)cyclohexyl)amino)-1-methyl-1H-indazole-6-carboxamide] | – | – | 0.031
7 | 0.253 | CCN(c1c(C)c(C(=O)NCc2c(C)cc(C)[nH]c2=O)cc2c1c(C)nn2C)C1CCC(N(C)C)CC1 (stereo not drawn) [P-42] | greatly reduced | – | –
8 | 0.027 | CCN(c1c(C)c(C(=O)NCc2c(C)cc(C)[nH]c2=O)cc2c1cnn2C)C1CCC(N(C)CC(F)F)CC1 (stereo not drawn) [P-45, 4-((4-((2,2-difluoroethyl) (methyl)amino)cyclohexyl)(ethyl)amino)-N-((4,6-dimethyl-2-oxo-1,2-dihydropyridin-3-yl)methyl)-1,5-dimethyl-1H-indazole-6-carboxamide] | – | – | –
9 | 0.053 | CCN(c1c(C)c(C(=O)NCc2c(C)cc(C)[nH]c2=O)cc2c1cnn2C)C1CCC(C)(N)CC1 (stereo not drawn) [P-46] | – | – | –
10 | 0.148 | CCN(c1c(C)c(C(=O)NCc2c(OC)cc(C)[nH]c2=O)cc2nn(C)cc12)C1CCOCC1 [P-50, 4-(ethyl(tetrahydro-2H-pyran-4-yl)amino)-N-((4-methoxy-6-methyl-2-oxo-1,2-dihydropyridin-3-yl)methyl)-2,5dimethyl-2H-indazole-6-carboxamide] | significantly reduced | – | –

Second part, the compound before the results:

Row | Compound | IC50 [1] [µM] | inhibitory activity against the enzyme (in words) [1] | IC50 (Pfeiffer cells; Homo sapiens, 144 h) [µM] | IC50 (Pfeiffer cells) [µM]
11 | 7-(ethyl(tetrahydro-2H-pyran-4-yl)amino)-N-((4-methoxy-6-methyl-2-oxo-1,2-dihydropyridin-3-yl)methyl)-1,6-dimethyl-1H-imidazole-5-carboxamide [P-4] | 0.502 | significantly reduced | – | –
12 | CCN(c1cc(C(=O)NCc2c(C)cc(C)[nH]c2=O)c(C)c2c1cnn2C)C1CCOCC1 [D1, N-((4,6-dimethyl-2-oxo-1,2-dihydropyridin-3-yl)methyl)-4-(ethyl(tetrahydro-2H-pyran-4-yl)amino)-1,7-dimethyl-1H-indazole-6-carboxamide, reference compound] | > 10 | – | > 10 | –
13 | CCN(c1c(C)c(C(=O)NCc2c(OC)cc(C)[nH]c2=O)cc2c1cnn2C)C1CCOCC1 [P-1, 4-(ethyl (tetrahydro-2H-pyran-4-yl)amino)-N-((4-methoxy-6-methyl-2-oxo-1,2-dihydropyridin-3-yl)methyl)-1,5-dimethyl-1H-indazole-6-carboxamide] | 0.025 | – | 0.093 | –
14 | CCN(c1c(C)c(C(=O)NCc2c(OC)cc(C)[nH]c2=O)cc2[nH]ncc12)C1CCOCC1 [P-2, 4-(ethyl(tetrahydro-2H-pyran-4-yl)amino)-N-((4-methoxy-6-methyl-2-oxo-1,2-dihydropyridin-3-yl)methyl)-5-methyl-1H-indazole-6-carboxamide] | 0.024 | – | – | –
15 | CCN(c1c(C)c(C(=O)NCc2c(OC)cc(C)[nH]c2=O)cc2cn[nH]c12)C1CCOCC1 [P-3, 7-(ethyl(tetrahydro-2H-pyran-4-yl)amino)-N-((4-methoxy-6-methyl-2-oxo-1,2-dihydropyridin-3-yl)methyl)-6-methyl-1H-imidazole-5-carboxamide] | 0.154 | significantly reduced | – | –
16 | CCN(c1c(C)c(C(=O)NCc2c(OC)cc(C)[nH]c2=O)cc2c1cnn2C(F)F)C1CCOCC1 [P-5, 1-(difluoromethyl)-4-(ethyl(tetrahydro-2H-pyran-4-yl)amino)-N-((4-methoxy-6-methyl-2-oxo-1,2-dihydropyridin-3-yl)methyl)-5-methyl-1H-indazole-6-carboxamide] | – | – | 0.071 | –
17 | CCN(c1c(C)c(C(=O)NCc2c(C)cc(C)[nH]c2=O)cc2c1cnn2C)C1CCOCC1 [P-7, N-((4,6-dimethyl-2-oxo-1,2-dihydropyridin-3-yl)methyl)-4-(ethyl(tetrahydro-2H-pyran-4-yl)amino)-1,5-dimethyl-1H-indazole-6-carboxamide] | – | – | 0.158 | –
18 | CCN(c1c(C)c(C(=O)NCc2c(C)cc(C)[nH]c2=O)cc2c1cnn2C)C1CCN(CC(F)(F)F)CC1 [P-8, N-((4,6-dimethyl-2-oxo-1,2-dihydropyridin-3-yl)methyl)-4-(ethyl(1-(2,2,2-trifluoroethyl)piperidin-4-yl)amino)-1,5-dimethyl-1H-indazole-6-carboxamide] | 0.053 | – | – | –
19 | CCN(c1c(C)c(C(=O)NCc2c(C)cc(C)[nH]c2=O)cc2c1cnn2C)C1CCC(N(C)CCOC)CC1 (stereo not drawn) [P-9, N-((4,6-dimethyl-2-oxo-1,2-dihydropyridin-3-yl)methyl)-4-(ethyl (4-((2-methoxyethyl)(methyl)amino)cyclohexyl)amino)-1,5-dimethyl-1H-indazole-6-carboxamide] | 0.009 | – | 0.032 | –
20 | CCN(c1c(C)c(C(=O)NCc2c(C)cc(C)[nH]c2=O)cc2c1cnn2C(F)F)C1CCOCC1 [P-10, 1-(difluoromethyl)-N-((4,6-dimethyl-2-oxo-1,2-dihydropyridin-3-yl)methyl)-4-(ethyl(tetrahydro-2H-pyran-4-yl)amino)-5-methyl-1H-indazole-6-carboxamide] | 0.061 | – | 0.141 | –
21 | CCN(c1c(C)c(C(=O)NCc2c(OC)cc(C)[nH]c2=O)cc2c1cnn2C)C1CCN(CC(F)(F)F)CC1 [P-11, 4-(ethyl(1-(2,2,2-trifluoroethyl)piperidin-4-yl)amino)-N-((4-methoxy-6-methyl-2-oxo-1,2-dihydropyridin-3-yl)methyl)-1,5-dimethyl-1H-indazole-6-carboxamide] | 0.013 | – | 0.292 | –
22 | CCN(c1c(C)c(C(=O)NCc2c(OC)cc(C)[nH]c2=O)cc2nn(C)cc12)C1CCN(CC(F)(F)F)CC1 [P-12, 4-(ethyl(1-(2,2,2-trifluoroethyl)piperidin-4-yl)amino)-N-((4-methoxy-6-methyl-2-oxo-1,2-dihydropyridin-3-yl)methyl)-2,5-dimethyl-2H-indazole-6-carboxamide] | 0.117 | – | – | –
23 | CCN(c1c(C)c(C(=O)NCc2c(C)cc(C)[nH]c2=O)cc2c1cnn2C)[C@H]1CC[C@@H](N(C)C)CC1 [P-13, N-((4,6-dimethyl-2-oxo-1,2-dihydropyridin-3-yl)methyl)-4-(((1S, 4S)-4-(dimethylamino)cyclohexyl) (ethyl)amino)-1,5-dimethyl-1H-indazole-6-carboxamide] | 0.023 | – | – | –
24 | CCc1c(C(=O)NCc2c(C)cc(C)[nH]c2=O)cc2c(cnn2C)c1N(CC)C1CCC(N2CC(C)C2)CC1 [P-18, N-((4,6-dimethyl-2-oxo-1,2-dihydropyridin-3-yl)methyl)-5-ethyl-4-(ethyl((1S,4S)-4-(3-methylazetiazin-1-yl)cyclohexyl)amino)-1-methyl-1H-indazole-6-carboxamide] | 0.012 | – | – | 0.007
25 | CCN(c1c(C)c(C(=O)NCc2c(C)cc(C)[nH]c2=O)cc2c1cnn2C)C1CCN(C2CCOCC2)CC1 [P-33] | 0.037 | – | – | –
26 | CCN(c1c(C)c(C(=O)NCc2c(C)cc(C)[nH]c2=O)cc2c1cnn2CC1CCOC1)C1CCOCC1 (stereo not drawn) [P-40] | – | – | 0.268 | –
